Reference: patent US12473262B2, “Aryl hydrocarbon receptor activators” (Oregon State University, priority 2019, dated 2025)

Molecular target: aryl hydrocarbon receptor (AhR) (Mus musculus (Mouse), UniProt P30561)
Assay: AhR ligand screening: AhRE-luciferase reporter in transfected Hepa1 cells
Assay type: cell-based
Conditions: for Fold @ 1 nM: fold change of luciferase expression at 1 nM test compound relative to vehicle (0.1% DMSO); for Fold @ 100 nM: fold change of luciferase expression at 100 nM test compound relative to vehicle (0.1% DMSO); for Fold @ 10 uM: fold change of luciferase expression at 10 uM test compound relative to vehicle (0.1% DMSO); for Fold relative to benchmark @ 100 nM: luciferase expression at 100 nM test compound relative to 100 nM benchmark compound 11-cl-BBQ
Method in brief: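 Mouse Hepa1 cells transfected with an AhRE-luciferase reporter were plated at 1×10^4 cells/well, grown overnight, then exposed to compounds. Cell lysates were assayed for luciferase by luminometry, with results given as fold induction over 0.1% DMSO vehicle.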

aryl hydrocarbon receptor (AhR), sequence (P30561 10-805): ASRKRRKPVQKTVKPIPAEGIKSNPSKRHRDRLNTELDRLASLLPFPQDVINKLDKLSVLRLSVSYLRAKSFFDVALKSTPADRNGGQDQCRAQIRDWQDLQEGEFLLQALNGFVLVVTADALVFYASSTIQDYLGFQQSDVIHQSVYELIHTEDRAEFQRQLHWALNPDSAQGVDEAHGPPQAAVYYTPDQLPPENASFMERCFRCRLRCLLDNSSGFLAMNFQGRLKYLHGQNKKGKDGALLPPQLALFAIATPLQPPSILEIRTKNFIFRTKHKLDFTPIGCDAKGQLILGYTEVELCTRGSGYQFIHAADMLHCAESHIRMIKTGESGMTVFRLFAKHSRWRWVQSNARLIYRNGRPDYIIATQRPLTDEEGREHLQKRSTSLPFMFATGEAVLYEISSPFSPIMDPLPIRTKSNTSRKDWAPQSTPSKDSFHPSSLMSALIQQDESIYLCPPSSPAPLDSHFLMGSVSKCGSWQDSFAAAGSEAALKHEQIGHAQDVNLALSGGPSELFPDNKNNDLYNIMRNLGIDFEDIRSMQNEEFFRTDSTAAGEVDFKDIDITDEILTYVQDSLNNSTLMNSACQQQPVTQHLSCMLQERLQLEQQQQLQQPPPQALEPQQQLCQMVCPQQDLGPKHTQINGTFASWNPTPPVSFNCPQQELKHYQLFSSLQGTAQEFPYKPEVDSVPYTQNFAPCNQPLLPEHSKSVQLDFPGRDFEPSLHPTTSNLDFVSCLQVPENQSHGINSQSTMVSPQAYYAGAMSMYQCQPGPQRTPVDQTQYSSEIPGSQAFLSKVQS
aryl hydrocarbon receptor (AhR), sequence (P53762 whole entry partner): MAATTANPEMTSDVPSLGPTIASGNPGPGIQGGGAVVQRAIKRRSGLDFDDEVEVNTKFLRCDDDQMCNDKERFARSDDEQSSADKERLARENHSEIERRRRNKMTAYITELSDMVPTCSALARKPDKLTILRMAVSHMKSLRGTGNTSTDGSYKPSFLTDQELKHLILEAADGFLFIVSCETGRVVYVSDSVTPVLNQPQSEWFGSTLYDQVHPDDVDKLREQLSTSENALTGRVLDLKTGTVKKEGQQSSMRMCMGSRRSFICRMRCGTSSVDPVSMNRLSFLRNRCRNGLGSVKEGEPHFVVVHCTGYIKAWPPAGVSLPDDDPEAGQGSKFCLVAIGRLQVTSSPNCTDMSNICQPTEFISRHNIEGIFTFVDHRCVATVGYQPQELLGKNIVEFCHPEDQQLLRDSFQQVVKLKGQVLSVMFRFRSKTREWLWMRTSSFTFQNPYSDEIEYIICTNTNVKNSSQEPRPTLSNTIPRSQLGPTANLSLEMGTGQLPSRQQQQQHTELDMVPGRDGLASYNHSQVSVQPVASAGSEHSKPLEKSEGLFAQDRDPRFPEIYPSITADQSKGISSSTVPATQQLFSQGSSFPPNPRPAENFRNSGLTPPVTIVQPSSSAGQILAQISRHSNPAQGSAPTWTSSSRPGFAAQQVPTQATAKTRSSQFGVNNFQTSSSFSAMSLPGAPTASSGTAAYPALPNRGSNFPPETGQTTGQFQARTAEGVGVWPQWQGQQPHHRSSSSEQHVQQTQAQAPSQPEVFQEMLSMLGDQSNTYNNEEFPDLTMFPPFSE

SMILES	Fold @ 1 nM	Fold @ 100 nM	Fold @ 10 uM	Fold relative to benchmark @ 100 nM
O=C(c1ccccc1)n1c(-c2ccc(F)c(Cl)c2)nc2cc(Cl)ccc21 [Compound 582]	1 fold	1 fold	14 fold	0.07 fold
Cc1ccc(C(=O)n2c(-c3cccc4ccccc34)nc3ccc(Cl)cc32)cc1 [Compound 698]	1 fold	26 fold	30 fold	1 fold
COC(=O)c1ccc2nc(-c3cccc4ccccc34)n(Cc3ccc(F)c(F)c3)c2c1 [Compound 1339]	1 fold	1 fold	4 fold	0.03 fold
CC1(O)c2cccc3cccc(c23)-c2nc3ccccc3n21 (stereo not drawn) [Compound 525, 7-methyl-7H-benzo[de]benzo[4,5]imidazo[2,1-a]isoquinolin-7-ol]	1 fold	5.6 fold	20 fold	0.4 fold
COc1ccc(-c2nc3ccc(Cl)cc3n2C(=O)c2ccccc2)cc1 [Compound 497]	1 fold	1.5 fold	3.5 fold	0.05 fold
O=C(c1cccc2ccccc12)n1c(-c2ccccc2)nc2cc(Cl)ccc21 [Compound 490, (5-chloro-2-phenyl-1H-benzo[d]imidazol-1-yl)(naphthalen-1-yl)methanone]	1 fold	1 fold	17 fold	0.03 fold
O=c1c2cccc3cccc(c32)c2cc3ccc(Cl)cc3n12 [Compound 405, 7-chloro-10-azapentacyclo[10.7.1.0^2,10.0^4,9.0^16,20]icosa 1(19),2,4(9),5,7,12,14,16(20),17-nonaen-11-one]	8 fold	31 fold		0.78 fold
O=C(c1ccc(F)c(F)c1)n1c(-c2cccc3c2CCCC3)nc2ccc(Cl)cc21 [Compound 780]	1 fold	1 fold	7 fold	0.04 fold
O=C(c1cnc2ccccc2c1)n1c(-c2cccc3ccccc23)nc2ccc(Cl)cc21 [Compound 856]	1 fold	38 fold	46 fold	1.31 fold
Cn1ncc2c(-c3nc4cc(Cl)ccc4n3C(=O)c3ccc(F)c(F)c3)cccc21 [Compound 860]	1 fold	3 fold	88 fold	0.1 fold
O=C(c1ccc(SC(F)(F)F)cc1)n1c(-c2cccc3ccccc23)nc2cc(Cl)ccc21 [Compound 686]	1 fold	24 fold	31 fold	0.92 fold
O=C(c1ccccc1)n1c(-c2cccc3c2CCCC3)nc2ccc(Cl)cc21 [Compound 778]	1 fold	1 fold	8 fold	0.04 fold
O=C(c1ccc(F)c(F)c1)n1c(-c2ccnc3ccccc23)nc2cc(Cl)ccc21 [Compound 767]	1 fold	2 fold	23 fold	0.08 fold
N#Cc1ccc(S(=O)(=O)n2c(-c3cccc4ccccc34)nc3cc(C(=O)N4CCCCC4)ccc32)cc1 [Compound 1336]	1 fold	1 fold	6 fold	0.03 fold
O=C(c1ccc(F)c(F)c1)n1c(-c2csc3ccccc23)nc2cc(Cl)ccc21 [Compound 861]	1 fold	2 fold	90 fold	0.07 fold
Cc1ccc(S(=O)(=O)n2c(-c3cccc4ccccc34)nc3ccc(Cl)cc32)cc1 [Compound 528, 6-chloro-2-(naphthalen-1-yl)-1-tosyl-1H-benzo[d]imidazole]	1 fold	19 fold	35 fold	0.48 fold
O=C(c1ccc(F)c(F)c1)n1c(-c2cc3ccccc3o2)nc2ccc(Cl)cc21 [Compound 858]	1 fold	10 fold	73 fold	0.34 fold
CC(C)(C)c1cccc(-c2nc3cc(Cl)ccc3n2C(=O)c2ccc(F)c(F)c2)c1 [Compound 787]	1 fold	1 fold	4 fold	0.04 fold
CN1CCN(C(=O)c2ccc3nc(-c4cccc5ccccc45)n(Cc4ccc(F)c(F)c4)c3c2)CC1 [Compound 1365]	1 fold	1 fold	2 fold	0.03 fold

SMILES	Fold @ 1 nM	Fold @ 100 nM	Fold @ 10 uM	Fold relative to benchmark @ 100 nM
O=C(c1cc2cc(Cl)ccc2o1)c1cccc2ccccc12 [Compound 406, (5-chlorobenzofuran-2-yl)(naphthalen-1-yl)methanone]	1 fold	1 fold	7.5 fold	0.03 fold
Cc1ccc(S(=O)(=O)n2c(-c3cccc4ccccc34)nc3ccccc32)cc1 [Compound 579]	1 fold	1 fold	2 fold	0.07 fold
COc1ccc(Cn2c(-c3cccc4ccccc34)nc3ccc(Cl)cc32)cc1 [Compound 853]	1 fold	1 fold	11 fold	0.03 fold
COC(=O)c1ccc2nc(-c3cccc4ccccc34)n(Cc3ccc(Cl)cc3)c2c1 [Compound 1407]	1 fold	1 fold	9 fold	0.03 fold
O=C(c1ccccc1)n1c(-c2ccc(F)cc2)nc2cc(Cl)ccc21 [Compound 492]	1 fold	1 fold	14 fold	0.03 fold
O=C(c1ccc2c(c1)nc(-c1cccc3ccccc13)n2S(=O)(=O)c1ccc2ccccc2c1)N1CCOCC1 [Compound 1363]	1 fold	1 fold	4 fold	0.03 fold
O=C(c1cnc2ccccc2c1)n1c(-c2cccc3ccccc23)nc2cc(Cl)ccc21 [Compound 855]	1 fold	33 fold	44 fold	1.14 fold
O=C(c1ccc(F)c(F)c1)n1c(-c2cccc3c2CCCC3)nc2cc(Cl)ccc21 [Compound 779]	1 fold	1 fold	5 fold	0.04 fold
COc1ccc(C(=O)n2c(-c3cc4ccccc4s3)nc3cc(F)ccc32)cc1 [Compound 634]	1 fold	2 fold	22 fold	0.22 fold
Cn1cc(C(=O)c2cccc3ccccc23)c2cc(Cl)ccc21 [Compound 359, (5-chloro-1-methyl-1H-indol-3-yl)(naphthalen-1-yl)methanone]	1 fold	1 fold	6 fold	0.03 fold
O=C(C1CCCCC1)n1c(-c2cccc3ccccc23)nc2cc(Cl)ccc21 [Compound 866]	1 fold	34 fold	50 fold	1.17 fold
COc1ccc(-c2nc3cc(Cl)ccc3n2C(=O)c2ccc(F)c(F)c2)c2ccccc12 [Compound 645]	1 fold	1 fold	15 fold	0.11 fold
COC(=O)c1ccc2c(c1)nc(-c1cccc3ccccc13)n2C(=O)c1ccc(OC(F)(F)F)cc1 [Compound 1342]	1 fold	2 fold	2 fold	0.07 fold
Clc1ccc2c(c1)nc(-c1cccc3ccccc13)n2Cc1ccncc1 [Compound 876]	1 fold	3 fold	32 fold	0.06 fold
O=C(c1ccc2nc(-c3cccc4ccccc34)n(Cc3ccc(F)cc3)c2c1)N1CCOCC1 [Compound 1404]	1 fold	1 fold	6 fold	0.03 fold
O=C(c1ccc(OC(F)(F)F)cc1)n1c(-c2cccc3ccccc23)nc2cc(Cl)ccc21 [Compound 696]	1 fold	22 fold	51 fold	0.85 fold
O=C(c1ccc(F)c(F)c1)n1c(-c2cccc3ccccc23)nc2ccc(OC(F)(F)F)cc21 [Compound 700]	1 fold	16 fold	22 fold	0.62 fold
O=C(c1ccc(F)c(F)c1)n1c(-c2cccc(-c3ccccc3)c2)nc2ccc(Cl)cc21 [Compound 772]	1 fold	1 fold	1 fold	0.04 fold
